System: potassium ion channel current of the DRG neurons
Test: cells
Type: cell-based, SD rats

## Nc1ccncc1 [4AP, 4-aminopyridine]
5 mM
  Current recorded after loading: 0.9766 nA
Rattus norvegicus, DRG neuron, read-out: Current inhibition rate
  inhibition at 5000 µM: 33.8%
